Reference: patent publication US20120039844A1, “COMPOSITION AND USE OF N-ALPHA-METHYLHISTAMINE DIHYDROCHLORIDE FOR THE REDUCTION OF OXYGEN RADICAL FORMATION” (priority 2009, published 2012)

Legend:
B16 melanoma cells = experiment: i.v. injected B16 melanoma in mice (lung tumor weight, pulmonary metastatic foci); type: in vivo; conditions: for tumor weight (wet lung weight at day 14) vs control mice: 24 hours before tumor cell inoculation, FIG. 4
Method: The anti-tumor properties of N-α-MH on i.v. injected B16 melanoma cells in mice were evaluated. One of N-α-MH, HDC, and a positive control were administered to the mice 24 hours before tumor cell inoculation as described by Hellstrand et al., J. Immunol., vol. 145, pp 4365-4370. Macroscopically visible pulmonary metastatic foci were counted fourteen days after the tumor cell inoculation. The tumor weight is the wet weight at day 14 of lungs from mice injected with tumor cells on day 0 as described by Hellstrand et al., J. Immunol., vol. 145, pp 4365-4370.

[1] = in the blood; cited from earlier work
[2] = test system: human mononuclear phagocytes; experiment: fMLF-induced oxygen radical formation (respiratory burst) in mononuclear phagocytes; type: cell-based; conditions: FIG. 1
NK cells [3] = experiment: Protection of NK cells from apoptosis inflicted by mononuclear phagocytes; type: cell-based, human; conditions: FIG. 2
Method: The ability of N-α-MH to protect NK cells from apoptosis inflicted by mononuclear phagocytes was evaluated. Cells were prepared as described by Hellstrand et al., J. Immunol., vol. 153, pp 4940-7, and mixtures of mononuclear phagocytes and NK cells were incubated overnight with HDC or N-α-MH at indicated final concentrations in 96-well microplates. Thereafter, cells were recovered and NK cells were analyzed for apoptosis (forward and side scatter) as described in Betten et al., J. Clin. Invest. Vol. 108, pp 1221-8 (hereby incorporated by reference in its entirety). FIG. 2 plots the results of six similar experiments.

NK cells [4] = experiment: CD69 expression on NK cells exposed to IL-2; type: cell-based; conditions: with human recombinant IL-2 50 U/ml, overnight; FIG. 3
Method: Three separate experiments were performed as described above with the addition of human recombinant IL-2 (50 U/ml) during the overnight incubation. The experiments were initiated with the aim at clarifying whether N-α-MH synergizes with IL-2 to activate NK cells in a fashion similar to HDC. The activation of NK cells by IL-2 was measured as the capacity of these cells to express the cell surface activation antigen CD69 (See, generally Hellstrand et al. JI 1994).

H2 receptor = H2 receptor (Homo sapiens, UniProt P25021); conditions: Saitoh et al., Gut 2002; cited from earlier work
H1 receptors = H1 receptors (Homo sapiens, UniProt P35367); conditions: cited from earlier work
Sequence of H1 receptors (P35367 whole entry): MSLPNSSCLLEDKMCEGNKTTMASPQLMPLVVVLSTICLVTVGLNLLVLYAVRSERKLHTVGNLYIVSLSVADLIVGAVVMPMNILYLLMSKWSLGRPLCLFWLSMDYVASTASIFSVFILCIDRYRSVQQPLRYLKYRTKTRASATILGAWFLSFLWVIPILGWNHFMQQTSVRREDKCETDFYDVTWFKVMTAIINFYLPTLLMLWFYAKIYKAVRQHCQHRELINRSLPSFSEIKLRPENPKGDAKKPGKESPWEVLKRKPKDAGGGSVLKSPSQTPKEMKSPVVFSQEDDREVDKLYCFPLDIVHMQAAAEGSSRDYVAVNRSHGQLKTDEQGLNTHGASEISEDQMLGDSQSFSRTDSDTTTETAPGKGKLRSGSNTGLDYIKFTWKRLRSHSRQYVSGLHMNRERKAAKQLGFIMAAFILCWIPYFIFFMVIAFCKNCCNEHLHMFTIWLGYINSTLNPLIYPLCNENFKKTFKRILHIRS

Sequence of H2 receptor (P25021 whole entry): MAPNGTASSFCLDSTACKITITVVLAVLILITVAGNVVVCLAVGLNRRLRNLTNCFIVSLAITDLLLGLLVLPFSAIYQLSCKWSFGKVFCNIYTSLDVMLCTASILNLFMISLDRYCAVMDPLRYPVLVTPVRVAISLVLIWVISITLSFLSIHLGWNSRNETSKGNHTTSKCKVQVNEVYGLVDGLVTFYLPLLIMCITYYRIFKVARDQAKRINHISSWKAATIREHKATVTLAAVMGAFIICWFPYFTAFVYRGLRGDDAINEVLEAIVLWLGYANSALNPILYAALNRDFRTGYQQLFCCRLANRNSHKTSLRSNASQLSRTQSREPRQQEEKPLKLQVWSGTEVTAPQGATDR

## Cl.Cl.NCCc1c[nH]cn1 [HDC, histamine dihydrochloride]
B16 melanoma cells; 50 mg/kg
  tumor weight (wet lung weight at day 14) vs control mice: significantly reduced tumor weight
[1]
  half life: five

## CNCCc1c[nH]cn1 [N-α-MH, N-alpha-methyl-histamine]
[2]; 5 min preincubation, then fMLF
  inhibition of oxygen radical production: potent inhibitor of oxygen radical production
[2]; in vitro
  maximal response in terms of oxygen radical inhibition, compared with HDC: at least comparable to HDC
NK cells [3]; Homo sapiens, overnight incubation with mononuclear phagocytes, six experiments, read-out: ED50 for protection of NK cells
  EC50: 2200 nM
NK cells [3]; in vitro
  protection of NK cells from apoptosis, compared with HDC: equally potent and effective at protecting NK cells from apoptosis as HDC
NK cells [4]
  expression of CD69 on NK cells: synergized with IL-2 to induce expression of CD69 on NK cells
B16 melanoma cells; 5 mg/kg N-α-MH equal to 50 mg/kg histamine
  potency relative to HDC in reducing tumor weight in vivo: about 10 times
B16 melanoma cells; 5 mg/kg
  tumor weight (wet lung weight at day 14) vs control mice: significantly reduced tumor weight
B16 melanoma cells; 5 mg/kg, 14 days after inoculation, FIG. 5
  extent of tumor reduction (lung metastases) compared with HDC at 50 mg/kg: about equal
B16 melanoma cells; 50 mg/kg
  tumor weight (wet lung weight at day 14) vs control mice: significantly reduced tumor weight
B16 melanoma cells; 50 mg/kg, 14 days after inoculation, FIG. 5
  number of melanoma lung metastases vs control mice: significantly less lung metastases than control mice
B16 melanoma cells; FIG. 5
  potency relative to HDC in reducing melanoma metastasis in vivo: approximately 10 times
B16 melanoma cells; mouse, in vivo
  potency relative to HDC in reducing tumor formation in vivo: approximately 10 times
H2 receptor
  potency in stimulating cAMP production via the H2 receptor, compared with histamine: significantly more potent than histamine
H1 receptors
  activity at H1 receptors: little or no activity at H1 receptors
